From paper PMC6221957, “Phenol Derivatives From the Sponge-Derived Fungus Didymellaceae sp. SCSIO F46” (Frontiers in Chemistry, 2018)

Legend:
[1] = Cytotoxicity assay (CCK-8), K562; assay type: cell-based; conditions: human; K562 cells, CCK-8, 72 h; read-out: Cytotoxic results IC50, K562
Protocol: (§1) Cytotoxic activities of the isolated compounds 1–17 and trichostatin A (TSA, positive control) against 10 tumor cell lines (K562, MCF-7, A549, Huh-7, H1975, HeLa, HL7702, HL60, MOLT-4, and DU145) were tested. […]. Cytotoxicity was assayed with the CCK-8 (Dojindo, Japan) method. 10 Cell lines K562, MCF-7, A549, Huh-7, H1975, Hela, HL7702, HL60, MOLT-4, and DU145 were purchased from Shanghai Cell Bank, Chinese Academy of Sciences. Cells were routinely grown and maintained in RPMI or DMEM media with 10% fetal bovine serum and with 1% penicillin/streptomycin. All cell lines were incubated in a Thermo/ Forma Scientific CO2 water-jacketed incubator with 5% CO2 in air at 37 °C. A cell viability assay was determined with the CCK-8 (Dojindo, Japan) assay. Cells were seeded at a density of 400−800 cells/well in 384-well plates and treated with various concentrations of compounds or solvent control. After 72 h incubation, CCK-8 reagent was added, and absorbance was measured at 450 nm using an Envision 2104 multilabel reader (PerkinElmer, USA). Dose−response curves were plotted to determine the IC50 values using Prism 5.0 (GraphPad Software Inc., USA).

[2] = Cytotoxicity assay (CCK-8), MCF-7; assay type: cell-based; conditions: human; MCF-7 cells, CCK-8, 72 h; read-out: Cytotoxic results IC50, MCF-7
Protocol: as §1

[3] = Cytotoxicity assay (CCK-8), A549; assay type: cell-based; conditions: human; A549 cells, CCK-8, 72 h; read-out: Cytotoxic results IC50, A549
Protocol: as §1

[4] = Cytotoxicity assay (CCK-8), Huh-7; assay type: cell-based; conditions: human; Huh-7 cells, CCK-8, 72 h; read-out: Cytotoxic results IC50, Huh-7
Protocol: as §1

[5] = Cytotoxicity assay (CCK-8), H1975; assay type: cell-based; conditions: human; H1975 cells, CCK-8, 72 h; read-out: Cytotoxic results IC50, H1975
Protocol: as §1

[6] = Cytotoxicity assay (CCK-8), HeLa; assay type: cell-based; conditions: human; HeLa cells, CCK-8, 72 h; read-out: Cytotoxic results IC50, HeLa
Protocol: as §1

[7] = Cytotoxicity assay (CCK-8), HL7702; assay type: cell-based; conditions: human; HL7702 cells, CCK-8, 72 h; read-out: Cytotoxic results IC50, HL7702
Protocol: as §1

[8] = Cytotoxicity assay (CCK-8), HL60; assay type: cell-based; conditions: human; HL60 cells, CCK-8, 72 h; read-out: Cytotoxic results IC50, HL60
Protocol: as §1

[9] = Cytotoxicity assay (CCK-8), MOLT-4; assay type: cell-based; conditions: human; MOLT-4 cells, CCK-8, 72 h; read-out: Cytotoxic results IC50, MOLT-4
Protocol: as §1

[10] = Cytotoxicity assay (CCK-8), DU145; assay type: cell-based; conditions: human; DU145 cells, CCK-8, 72 h; read-out: Cytotoxic results IC50, DU145
Protocol: as §1

[11] = Cytotoxicity against the panel of 10 tumor cell lines (summary statements); assay type: cell-based; conditions: human
Protocol: as §1

[12] = system: 10 tumor cell lines (K562, MCF-7, A549, Huh-7, H1975, HeLa, HL7702, HL60, MOLT-4, and DU145); test: as above; assay type: cell-based
Protocol: as §1

COX-2 = molecular target: T1, COX-2 (Ovis aries, UniProt P79208); test: COX-2 inhibitory activity assay (COX (ovine) inhibitor screening kit); assay type: biochemical; conditions: enzyme immunoassay
T1 construct: purchased
T1 sequence (P79208 17-603): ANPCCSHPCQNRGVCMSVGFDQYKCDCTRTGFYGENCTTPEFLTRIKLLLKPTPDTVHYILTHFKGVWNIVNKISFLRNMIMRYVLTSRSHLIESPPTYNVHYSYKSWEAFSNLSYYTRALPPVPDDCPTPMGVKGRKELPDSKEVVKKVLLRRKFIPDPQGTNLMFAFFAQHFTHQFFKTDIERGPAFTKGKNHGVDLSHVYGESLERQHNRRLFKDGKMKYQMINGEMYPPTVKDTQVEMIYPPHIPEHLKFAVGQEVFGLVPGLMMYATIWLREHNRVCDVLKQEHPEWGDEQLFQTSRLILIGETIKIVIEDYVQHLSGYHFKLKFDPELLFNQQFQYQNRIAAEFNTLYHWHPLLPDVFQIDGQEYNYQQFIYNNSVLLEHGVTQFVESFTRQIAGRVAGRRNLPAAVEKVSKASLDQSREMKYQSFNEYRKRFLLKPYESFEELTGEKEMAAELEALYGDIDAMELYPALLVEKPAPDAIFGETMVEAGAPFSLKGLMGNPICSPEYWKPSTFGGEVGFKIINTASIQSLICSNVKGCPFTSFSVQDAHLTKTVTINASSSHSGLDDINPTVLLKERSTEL
Protocol: According to the manufacturer's instructions. The test compounds were dissolved in DMSO and the final concentration was set as 10 μM.
The COX-2 enzyme is a well-established target for anti-inflammatory evaluation. […] The COX-2 enzyme catalyses the biosynthesis of PGH2 from arachidonic acid. In this assay, the PGF2a produced by the reduction of PGH2 with stannous chloride (SnCl2) was measured in this enzyme immunoassay. The stock solutions were prepared in dimethyl sulfoxide, and the final concentration was set as 10 mM for the isolated compounds. The percentage inhibition was calculated by comparison with control incubations.

K562 = test: Cytotoxicity assay (CCK-8), K562; assay type: cell-based; conditions: K562 cells, CCK-8, 72 h; read-out: Cytotoxic results IC50, K562
Protocol: as §1

MCF-7 = test: Cytotoxicity assay (CCK-8), MCF-7; assay type: cell-based; conditions: MCF-7 cells, CCK-8, 72 h; read-out: Cytotoxic results IC50, MCF-7
Protocol: as §1

A549 = test: Cytotoxicity assay (CCK-8), A549; assay type: cell-based; conditions: A549 cells, CCK-8, 72 h; read-out: Cytotoxic results IC50, A549
Protocol: as §1

Huh-7 = test: Cytotoxicity assay (CCK-8), Huh-7; assay type: cell-based; conditions: Huh-7 cells, CCK-8, 72 h; read-out: Cytotoxic results IC50, Huh-7
Protocol: as §1

H1975 = test: Cytotoxicity assay (CCK-8), H1975; assay type: cell-based; conditions: H1975 cells, CCK-8, 72 h; read-out: Cytotoxic results IC50, H1975
Protocol: as §1

HeLa = test: Cytotoxicity assay (CCK-8), HeLa; assay type: cell-based; conditions: HeLa cells, CCK-8, 72 h; read-out: Cytotoxic results IC50, HeLa
Protocol: as §1

HL7702 = test: Cytotoxicity assay (CCK-8), HL7702; assay type: cell-based; conditions: HL7702 cells, CCK-8, 72 h; read-out: Cytotoxic results IC50, HL7702
Protocol: as §1

HL60 = test: Cytotoxicity assay (CCK-8), HL60; assay type: cell-based; conditions: HL60 cells, CCK-8, 72 h; read-out: Cytotoxic results IC50, HL60
Protocol: as §1

MOLT-4 = test: Cytotoxicity assay (CCK-8), MOLT-4; assay type: cell-based; conditions: MOLT-4 cells, CCK-8, 72 h; read-out: Cytotoxic results IC50, MOLT-4
Protocol: as §1

DU145 = test: Cytotoxicity assay (CCK-8), DU145; assay type: cell-based; conditions: DU145 cells, CCK-8, 72 h; read-out: Cytotoxic results IC50, DU145
Protocol: as §1

Compound	IC50 at 72 h [1] [µM]	IC50 at 72 h [2] [µM]	IC50 at 72 h [3] [µM]	IC50 at 72 h [4] [µM]	IC50 at 72 h [5] [µM]	IC50 at 72 h [6] [µM]	IC50 at 72 h [7] [µM]	IC50 at 72 h [8] [µM]	IC50 at 72 h [9] [µM]	IC50 at 72 h [10] [µM]	further results
COC(=O)c1c(C)cc(O)cc1Oc1cc(C)cc(O)c1 [Compound 3, Diorcinol L]	43.5	10.5	17.7	5.7	15.3	7.1	68.2	9.6	> 200	9.1	IC50 at 72 h ([11]; range over Huh-7, HeLa, DU145 and HL60 cells, read-out: Cytotoxicities IC50 values against Huh-7, HeLa, DU145 and HL60 cells): 5.7 to 9.6 µM; IC50 at 72 h ([11]; range over the tumor cell lines of Table 3, read-out: Cytotoxicities IC50 values in the range over the cell lines): 5.7 to 68.2 µM; Activities against other five cell lines (in words) ([12]; cell lines other than Huh-7, HeLa, DU145 and HL60): weak activities
Cc1cc(O)c(O)c2oc3c(C(=O)O)cc(O)cc3c12 [Compound 6, Porric acid E]	–	–	–	–	–	–	–	–	–	–	IC50 (COX-2): 3.3 µM
Cc1cc(CO)c2c(=O)c3c(O)cccc3oc2c1 [Compound 8, 1-Hydroxy-6-methyl-8-hydroxy-methylxanthone]	> 200	141	128	122	> 200	14.3	33.8	> 200	> 200	> 200	Cytotoxicities against HeLa and HL7702 cells (in words) ([12]; HeLa and HL7702 cells): weak selective cytotoxicities
CC(/C=C/C(=O)NO)=C\[C@@H](C)C(=O)c1ccc(N(C)C)cc1 [TSA, trichostatin A, reference compound]	–	–	–	–	–	–	–	–	–	–	IC50 (K562): 0.1 µM; IC50 (MCF-7): 0.7 µM; IC50 (A549): 0.3 µM; IC50 (Huh-7): 0.08 µM; IC50 (H1975): 0.09 µM; IC50 (HeLa): 0.08 µM; IC50 (HL7702): 0.09 µM; IC50 (HL60): 0.04 µM; IC50 (MOLT-4): 0.03 µM; IC50 (DU145): 0.04 µM
